Data reported in EP1670820B1, “ANTIGENS FOR AN EAST COAST FEVER VACCINE” (International Livestock Research Institute ( ILRI), priority 2003, dated 2005).

System: peptide pulsed autologous iSF
Experiment: 51Chromium release assay: CTL lysis of peptide pulsed autologous iSF
Assay type: cell-based, cattle
Details: autologous iSF pulsed overnight with peptide; BW014 polyclonal CD8+ CTL line (FIG. 9)

For SLVCVLMKC [Tp2 peptide 76B], the “lysis of iSF pulsed with peptide” value was “background levels of lysis”.
